Laboratory results taken from patent publication US9650360B2, “Anti-mycobacterial drugs against tuberculosis” (priority 2012, dated 2017).

Tested on: HIV
Assay: in vitro anti-HIV activity in cell culture
Type: cell-based

For O=C(/C=C(\O)c1cc(Cc2c(F)cc(F)cc2F)cn(Cc2ccccc2F)c1=O)C(=O)N1CCN(c2cccc3ccccc23)CC1, the “EC90 (concentration for 90% inhibition of virus replication)” value was “nM range”.
